{"source": "patent US6355619B1", "about": "“Peptide tumor cell growth inhibitors” (Board of Regents, The University of Texas System, priority 1996, dated 2002)", "key": {"[1]": {"target": "T1, leukotriene B4 binding to human neutrophils (Homo sapiens, UniProt Q15722)", "T1 construct": "endogenous in cells; host or cells: human blood neutrophils", "T1 sequence (Q15722 whole entry)": "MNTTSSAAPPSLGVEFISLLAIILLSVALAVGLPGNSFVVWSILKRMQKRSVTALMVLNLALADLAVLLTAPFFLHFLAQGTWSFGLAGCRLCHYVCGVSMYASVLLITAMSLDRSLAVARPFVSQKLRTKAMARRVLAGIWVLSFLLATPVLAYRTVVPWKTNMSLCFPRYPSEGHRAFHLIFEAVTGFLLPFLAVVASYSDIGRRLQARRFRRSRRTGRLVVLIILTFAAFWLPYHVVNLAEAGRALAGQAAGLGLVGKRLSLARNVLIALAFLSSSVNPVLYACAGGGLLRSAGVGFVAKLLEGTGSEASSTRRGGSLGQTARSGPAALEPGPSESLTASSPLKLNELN", "assay": "Binding of 3H-leukotriene B4 to human neutrophils", "conditions": "100 μM peptide; 0.4 nM 3H-labeled leukotriene B4", "source_text": "(§1) To examine the specificity of Ac-RRWWCR-NH2 (SEQ ID NO:1) on ligand-receptor binding, the inventors tested whether the peptide reduced the binding of human ^125I-C5a or ^3H-leukotriene B4 to human neutrophils.\n(§2) Recombinant human fifth component of complement (C5a) (Sigma Chemical Co., St. Louis, Mo.) was radioiodinated enzymatically using Enzymobead (Bio Rad, Richmond, Calif.). Tritiated leukotriene B4 was purchased from Du Pont Co., Wilmington, Del. Binding assays for C5a and leukotriene B4 were performed as described for IL-8 binding in Example I, except that the buffers used were PBS containing 1 mM CaCl2, 0.5 mM MgCl2, 0.5% BSA, and HBSS containing 0.1% ovulabumin and 10 mM HEPES (pH7.3), respectively, as previously described (Braunwalder et al., 1992; Sherman et al., 1988). The radioactivity was measured with liquid scintillation counter for the leukotriene B4 assay. The binding of both ligands were saturable and inhibited by the non-labeled agonists in dose dependent manners."}, "[2]": {"tested_on": "adenocarcinoma from breast tissue MCF-7", "assay": "Tumor cell growth, MCF-7", "assay_type": "cell-based"}, "[3]": {"target": "T2, C5a binding to human neutrophils (Homo sapiens, UniProt P21730)", "T2 construct": "endogenous in cells; host or cells: human blood neutrophils", "T2 sequence (P21730 whole entry)": "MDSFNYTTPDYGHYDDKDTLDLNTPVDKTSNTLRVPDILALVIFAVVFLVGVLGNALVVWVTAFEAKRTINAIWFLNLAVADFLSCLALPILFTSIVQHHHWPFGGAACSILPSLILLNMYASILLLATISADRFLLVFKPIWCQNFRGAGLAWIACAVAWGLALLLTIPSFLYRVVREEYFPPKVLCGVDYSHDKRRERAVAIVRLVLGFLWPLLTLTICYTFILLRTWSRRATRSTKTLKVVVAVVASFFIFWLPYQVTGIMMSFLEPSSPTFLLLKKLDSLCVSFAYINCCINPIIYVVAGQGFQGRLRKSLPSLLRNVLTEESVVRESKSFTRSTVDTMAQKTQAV", "assay": "Binding of 125I-C5a to human neutrophils", "conditions": "100 μM peptide; 0.25 nM 125I-labeled C5a", "source_text": "as §1, §2"}, "[4]": {"tested_on": "SP2/o mouse myeloma cell lines", "assay": "Growth of SP2/o myeloma cells stimulated by murine interleukin-6", "assay_type": "cell-based"}, "RPMI-7951": {"tested_on": "RPMI-7951", "conditions": "16 hr", "description": "The cell lines (4×10^5 cells/well) in RPMI-1640 medium containing 10% fetal bovine serum were incubated with 10 μCi of Na2^51CrO4 (DuPont NEN Co.) for 60 min at 37° C. in a 24 well tissue culture plate. The cells were washed 3 times and then incubated in cell culture medium for 30 min at 37° C. to allow spontaneous lysis of marginally viable cells. […] The cells were cultured for 16 hr at 37° C. and then the radioactivity in the supernatants was counted in a gamma radiation spectrometer. Quadriplicate wells received cell culture medium alone or 2% SDS to determine spontaneous and maximum release, respectively. The percentage lysis was calculated by using the following formula: [formula]"}, "[5]": {"tested_on": "MGSA/GROα receptors on RPMI-7951 melanoma cells", "assay": "Binding of 125I-MGSA/GROα to RPMI-7951 melanoma cells", "conditions": "RPMI-7951, 1 nM 125I-labeled MGSA/GROα; read-out: EC50, inhibition of MGSA/GROα binding", "method": "(§3) FIG. 11A. The binding of ^125I-labeled MGSA/GROα to melanoma cell lines, Hs 294T and RPMI-7951. The melanoma cells, 1×10^5, were incubated with 1 nM ^125I-MGSA/GROα in the presence of various concentrations of unlabeled MGSA/GROα. Binding inhibition curve with Hs 294T (closed circles) and RPMI-7951 (open circles). The lines shown in the graph are the best fit curves calculated using the London II computer program.\n(§4) FIG. 13. The effect of Antileukinate on the binding of radiolabeled MGSA/GROα to the melanoma cell lines. The melanoma cells, Hs 294T (closed circles) and RPMI-7951 (open circles), were incubated with 1 nM ^125I-MGSA/GROα in the presence of different concentrations of Antileukinate. The lines shown in the graph are the best fit curves calculated using the London II computer program.\n(§5) Recombinant human MGSA/GROα and IL-8 were purchased form Pepro Tech Inc. (Rocky Hill, N.J.) and radioactively labeled using ^125I-labeled Bolton-Hunter reagent (DuPont-NEN, Wilmington, Del.) (Bolton and Hunter, 1973). The labeled proteins were isolated using Sephadex G-25 column (Column PD-10, Pharmacia) pre-equilibrated with PBS containing 0.1% gelatin and stored at −70° C. after the addition of 1% bovine serum albumin.\n(§6) Binding studies with melanoma cell lines were performed by the method of Horuk and colleagues (Horuk et al., 1993). Briefly, the cells (1×10^5 cells/well) in 24-well plates were washed two times with Hank's Balanced Salt Solution and incubated with ^125I-labeled MGSA/GROα or IL-8 in the buffer containing 1% bovine serum albumin at 4° C. for 3 hr. The incubation was terminated by vacuum aspiration of the supernatant. The cells were washed three times in binding buffer, solubilized by the addition of 200 μl of 1% SDS, and transferred to vials for counting. The non-specific binding was estimated by measuring the binding in the presence of 100-fold excess of non-labeled ligand. The binding parameters were calculated using the Lundon II computer program (Lundon Software Inc., Chagrin Falls, Ohio)."}, "[6]": {"tested_on": "adenocarcinoma from colon Caco-2", "assay": "Tumor cell growth, Caco-2", "assay_type": "cell-based"}, "IL-8": {"target": "IL-8 (Homo sapiens, UniProt P10145)", "sequence (P10145 28-99)": "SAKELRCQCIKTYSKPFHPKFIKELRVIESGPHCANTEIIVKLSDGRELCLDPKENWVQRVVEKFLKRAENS", "assay": "Interaction of the peptide with IL-8", "assay_type": "binding"}, "[7]": {"conditions": "Hep G2 culture, 100 μM peptide", "description": "Analysis for the breakdown of Antileukinate in the culture of Hep G2 cells. A total concentration of tritium labeled and unlabeled Antileukinate of 100 μM, was added to the culture of Hep G2 cells. Aliquots of medium were removed at different times and chromatographed on an HPLC Bondapak C18 reversed phase column. The peptides were eluted using a gradient from 0.1% TFA to 80% acetonitrile in 0.1% TFA. One milliliter fractions were collected and measured for their radioactivity using a liquid scintillation counter. The chromatographs show the elution volume of the radioactivity at different times after addition to the cells.\nHs 294T and Hep G2 cells, 2×10^4 cell/well, were cultured in 24 well tissue culture plates for 24 hr. Then the culture media were replaced with media containing tritiated Antileukinate, 0.2 μCi, mixed with 100 μM unlabeled peptide in each well. The cells were then cultured for the indicated periods. The supernatants were collected and stored at −70° C. until use. The breakdown of Antileukinate during the cell culture was analyzed on high performance liquid chromatography (HPLC) using an analytical C18 reversed phase column (Waters Co., New Bedford, Mass.). […] One milliliter fractions were collected and measured for their radioactivity content using a liquid scintillation counter."}, "[8]": {"tested_on": "MGSA/GROα receptors on Hs 294T melanoma cells", "assay": "Binding of 125I-MGSA/GROα to Hs 294T melanoma cells", "parameters": "species or system human", "conditions": "1 nM 125I-labeled MGSA/GROα, read-out: EC50, inhibition of MGSA/GROα binding", "method": "as §3, §4, §5, §6"}, "[9]": {"tested_on": "adenocarcinoma from stomach Hs746T", "assay": "Tumor cell growth, Hs746T", "assay_type": "cell-based"}, "[10]": {"target": "T3, MIP2β binding to human neutrophils (Homo sapiens, UniProt P25025)", "T3 construct": "endogenous in cells; host or cells: human neutrophils", "T3 sequence (P25025 whole entry)": "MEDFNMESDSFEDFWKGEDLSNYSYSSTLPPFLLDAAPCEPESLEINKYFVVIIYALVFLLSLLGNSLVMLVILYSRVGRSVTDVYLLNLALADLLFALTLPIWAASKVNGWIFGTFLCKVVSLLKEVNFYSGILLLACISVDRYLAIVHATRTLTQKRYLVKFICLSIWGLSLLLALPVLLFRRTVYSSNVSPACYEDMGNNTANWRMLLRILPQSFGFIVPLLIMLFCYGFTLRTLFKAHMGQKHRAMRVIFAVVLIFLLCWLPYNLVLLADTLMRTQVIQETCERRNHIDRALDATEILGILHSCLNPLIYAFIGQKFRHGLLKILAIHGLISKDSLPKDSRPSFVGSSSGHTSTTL", "assay": "Binding of radioiodinated MIP2β to human neutrophils", "conditions": "1 nM MIP2β", "method": "FIG. 10. Ac-RRWWCX (SEQ ID NO:23) Inhibits Binding of GRO and MIP2β to human neutrophils. Radioiodinated MIP2β and GRO/MGSA were mixed with various concentration of Ac-RRWWCR-NH2 and incubated at room temperature for 15 min. Neutrophil suspension (1×10^6 cells in 160 μl PBS containing 0.1% BSA) was added to 40 μl of the mixture and incubated for 90 min on ice. The radioactivity bound to the cells was separated from free radioactivity by centrifugation through an oil layer. The % binding inhibition was calculated as follows: [formula]\nMIP2β and GRO/MGSA were radioiodinated using Bolten Hunter reagent. The radioiodinated components were mixed with various concentration of the Ac-RRWWCX-NH2 (SEQ ID NO:23) peptide and incubated at room temperature for 15 min. Neutrophil suspension (1×10^6 cells in 160 μl PBS containing 0.1% BSA) was added to 40 μl of the mixture and incubated for 90 min on ice. The radioactivity bound to the cells was separated from free radioactivity by centrifugation through an oil layer. The bound radioactivity is an indication of bound CXC intercrine peptide. The % binding inhibition in the presence of Ac-RRWWCX-NH2 (SEQ ID NO:23) was calculated as follows: [formula]\nwhere B is bound radioactivity in the presence of the peptide, T is bound radioactivity in the absence of the peptide, and NSP is bound radioactivity in the presence of excess nonlabeled ligand."}}, "note": "Like-named read-outs stand apart in the source and are kept apart here."}
{"substance": "RRWWCR [Ac-RRWWCR-NH2]", "values": [{"measurement": "effect on binding of leukotriene B4 to neutrophils", "setting": "[1]", "result": "did not affect the binding"}, {"measurement": "effect on cell growth", "setting": "[2]", "result": "inhibits growth"}, {"measurement": "effect on binding of C5a to neutrophils", "setting": "[3]", "result": "did not affect the binding"}, {"measurement": "effect on growth of SP2/o mouse myeloma cell lines", "setting": "[4]", "result": "did not affect the growth"}, {"measurement": "% cell lysis", "setting": "RPMI-7951; RPMI-7951, 1 μM peptide", "result": "−0.8 ± 2.2", "unit": "%"}, {"measurement": "% cell lysis", "setting": "RPMI-7951; RPMI-7951, 5 μM peptide", "result": "−2.6 ± 3.7", "unit": "%"}, {"measurement": "% cell lysis", "setting": "RPMI-7951; RPMI-7951, 20 μM peptide", "result": "−3.4 ± 6.3", "unit": "%"}, {"measurement": "% cell lysis", "setting": "RPMI-7951; RPMI-7951, 100 μM peptide", "result": "6.8 ± 11.1", "unit": "%"}, {"measurement": "EC50", "setting": "[5]", "result": "~1000", "unit": "nM"}, {"measurement": "effect on cell growth", "setting": "[6]", "result": "inhibits growth"}, {"measurement": "interaction of the peptide with IL-8", "setting": "IL-8", "result": "does not interact with IL-8"}, {"measurement": "time within which the peptide is substantially eliminated from the culture", "setting": "[7]", "result": "≤ 24", "unit": "h"}, {"measurement": "decrease of the major radioactivity peak (intact peptide)", "setting": "[7]; after 24 hr", "result": "more than 85%"}, {"measurement": "EC50", "setting": "[8]", "result": "~1000", "unit": "nM"}, {"measurement": "effect on cell growth", "setting": "[9]", "result": "inhibits growth"}, {"measurement": "effect on binding of MIP2β to neutrophils", "setting": "[10]; listed as Ac-RRWWCX-NH2", "result": "effectively suppress the binding"}, {"measurement": "effect on binding of MIP2β to neutrophils", "setting": "[10]; listed as Antileukinate", "result": "suppressed the binding"}]}
